Assay results: article PMC9954146, “Anti-Leukaemic Activity of Rilpivirine Is Mediated by Aurora A Kinase Inhibition” (Cancers, 2023)

What was measured:
Experiment in all cases: Kinase panel
Format in all cases: biochemical
Conditions in all cases: read-out: % Residual Activity
CK2α2(h) = target: T1, CK2α2(h) (Homo sapiens, UniProt P19784)
T1 construct: purchased Eurofins (KinaseProfiler)
Description: (§1) Kinome-wide selectivity of rilpivirine was measured using the kinase screening and profiling service of Eurofins Scientific (Le bois l’Evêque 86600. Celle-Lévescault, France) and Ki values were determined using radioisotope-based assays by Reaction Biology Corporation (Malvern, PA, USA). The experimental details of Eurofin Scientific and Reaction Biology services for relevant assays are available at https://www.eurofinsdiscoveryservices.com/services/in-Vitro-assays/kinases/kinase-profiler (accessed on 7 July 2021) and https://www.reactionbiology.com (accessed on 7 July 2021), respectively. Ki values were estimated from the corresponding IC50 values using the Cheng–Prusoff equation [21] and the Km (ATP) of individual kinase was used for IC50 determination.

CK1α(h) = target: T2, CK1α(h) (Homo sapiens, UniProt P48729)
T2 construct: purchased Eurofins (KinaseProfiler)
T2 sequence (P48729 whole entry): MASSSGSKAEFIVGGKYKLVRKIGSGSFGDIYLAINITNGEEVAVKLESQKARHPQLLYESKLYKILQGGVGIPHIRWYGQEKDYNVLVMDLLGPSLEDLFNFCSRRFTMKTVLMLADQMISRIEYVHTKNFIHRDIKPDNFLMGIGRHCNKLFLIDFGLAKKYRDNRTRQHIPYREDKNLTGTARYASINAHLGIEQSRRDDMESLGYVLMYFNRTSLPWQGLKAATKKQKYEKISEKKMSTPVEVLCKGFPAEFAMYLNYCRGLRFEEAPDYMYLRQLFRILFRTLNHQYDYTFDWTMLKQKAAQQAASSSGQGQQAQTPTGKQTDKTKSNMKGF
Description: as §1

PDGFRα(h) = target: T3, PDGFRα(h) (Homo sapiens, UniProt P16234)
T3 construct: purchased Eurofins (KinaseProfiler)
T3 sequence (P16234 24-1089): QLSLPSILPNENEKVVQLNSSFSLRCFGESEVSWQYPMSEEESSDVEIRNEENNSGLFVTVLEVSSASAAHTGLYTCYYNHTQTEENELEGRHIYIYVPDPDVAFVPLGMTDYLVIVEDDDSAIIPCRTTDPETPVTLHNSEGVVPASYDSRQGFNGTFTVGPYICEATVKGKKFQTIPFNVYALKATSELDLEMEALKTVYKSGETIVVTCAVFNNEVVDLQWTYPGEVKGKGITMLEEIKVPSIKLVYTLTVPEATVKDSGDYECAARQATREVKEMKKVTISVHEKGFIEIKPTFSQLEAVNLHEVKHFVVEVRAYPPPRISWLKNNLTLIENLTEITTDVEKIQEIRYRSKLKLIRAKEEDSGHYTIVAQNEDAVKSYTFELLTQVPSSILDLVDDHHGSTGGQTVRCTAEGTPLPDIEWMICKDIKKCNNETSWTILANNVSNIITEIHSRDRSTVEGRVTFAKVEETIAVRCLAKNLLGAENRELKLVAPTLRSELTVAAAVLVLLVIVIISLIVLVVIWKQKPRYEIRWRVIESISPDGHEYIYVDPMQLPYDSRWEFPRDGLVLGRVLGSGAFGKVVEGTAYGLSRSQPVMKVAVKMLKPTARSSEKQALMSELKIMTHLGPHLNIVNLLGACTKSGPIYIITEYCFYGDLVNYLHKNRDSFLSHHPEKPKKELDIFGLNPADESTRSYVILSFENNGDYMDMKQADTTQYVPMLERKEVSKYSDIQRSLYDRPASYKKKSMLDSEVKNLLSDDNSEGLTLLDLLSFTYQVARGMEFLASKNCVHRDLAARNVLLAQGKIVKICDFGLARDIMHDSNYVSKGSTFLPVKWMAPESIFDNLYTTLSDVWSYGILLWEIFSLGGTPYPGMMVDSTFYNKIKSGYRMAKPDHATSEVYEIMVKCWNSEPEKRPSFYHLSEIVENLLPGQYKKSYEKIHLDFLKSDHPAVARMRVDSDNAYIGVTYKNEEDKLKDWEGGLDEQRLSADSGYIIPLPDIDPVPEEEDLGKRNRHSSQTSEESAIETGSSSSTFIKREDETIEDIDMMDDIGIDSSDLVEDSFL
Description: as §1

Met(D1246N)(h) = target: T4, Met(D1246N)(h) (Homo sapiens, UniProt P08581, D1228N)
T4 construct: purchased Eurofins (KinaseProfiler)
Description: as §1

IR(h), activated = target: T5, IR(h), activated (Homo sapiens, UniProt P06213)
T5 construct: purchased Eurofins (KinaseProfiler)
Description: as §1

ALK6(h) = target: T6, ALK6(h) (Homo sapiens, UniProt O00238)
T6 construct: purchased Eurofins (KinaseProfiler)
Description: as §1

TrkA(h) = target: T7, TrkA(h) (Homo sapiens, UniProt P04629)
T7 construct: purchased Eurofins (KinaseProfiler)
Description: as §1

Abl(Y253F)(h) = target: T8, Abl(Y253F)(h) (Homo sapiens, UniProt P00519, Y253F)
T8 construct: purchased Eurofins (KinaseProfiler)
Description: as §1

Aurora-B(h) = target: T9, Aurora-B(h) (Homo sapiens, UniProt Q96GD4)
T9 construct: purchased Eurofins (KinaseProfiler)
Description: as §1

PKCβI(h) = target: T10, PKCβI(h) (Homo sapiens, UniProt P05771)
T10 construct: purchased Eurofins (KinaseProfiler)
T10 sequence (P05771 whole entry): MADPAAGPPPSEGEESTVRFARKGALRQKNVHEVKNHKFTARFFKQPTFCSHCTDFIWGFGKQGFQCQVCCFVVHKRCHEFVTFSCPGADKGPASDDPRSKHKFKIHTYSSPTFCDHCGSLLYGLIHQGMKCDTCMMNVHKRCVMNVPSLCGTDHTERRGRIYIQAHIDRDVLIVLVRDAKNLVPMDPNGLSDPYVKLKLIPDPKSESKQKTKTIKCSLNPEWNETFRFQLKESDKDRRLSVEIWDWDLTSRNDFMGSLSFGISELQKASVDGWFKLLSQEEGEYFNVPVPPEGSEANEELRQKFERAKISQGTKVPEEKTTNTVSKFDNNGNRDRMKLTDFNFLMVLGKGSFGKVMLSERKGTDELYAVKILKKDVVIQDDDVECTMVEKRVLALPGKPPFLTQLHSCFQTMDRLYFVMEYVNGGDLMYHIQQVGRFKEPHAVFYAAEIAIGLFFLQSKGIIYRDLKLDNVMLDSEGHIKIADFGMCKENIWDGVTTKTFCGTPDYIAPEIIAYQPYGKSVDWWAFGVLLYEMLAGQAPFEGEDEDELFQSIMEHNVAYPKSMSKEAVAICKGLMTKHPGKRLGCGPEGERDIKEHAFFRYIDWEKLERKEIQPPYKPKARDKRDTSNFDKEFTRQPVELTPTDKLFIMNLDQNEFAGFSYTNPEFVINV
Description: as §1

IRE1(h) = target: T11, IRE1(h) (Homo sapiens, UniProt O75460)
T11 construct: purchased Eurofins (KinaseProfiler)
Description: as §1

PEK(h) = target: T12, PEK(h) (Homo sapiens, UniProt Q9NZJ5)
T12 construct: purchased Eurofins (KinaseProfiler)
Description: as §1

ALK2(h) = target: T13, ALK2(h) (Homo sapiens, UniProt Q04771)
T13 construct: purchased Eurofins (KinaseProfiler)
Description: as §1

Met(Y1248D)(h) = target: T14, Met(Y1248D)(h) (Homo sapiens, UniProt P08581, Y1230D)
T14 construct: purchased Eurofins (KinaseProfiler)
Description: as §1

MINK(h) = target: T15, MINK(h) (Homo sapiens, UniProt Q8N4C8)
T15 construct: purchased Eurofins (KinaseProfiler)
Description: as §1

DNA-PK(h) = target: T16, DNA-PK(h) (Homo sapiens, UniProt P78527)
T16 construct: purchased Eurofins (KinaseProfiler)
Description: as §1

EphA1(h) = target: T17, EphA1(h) (Homo sapiens, UniProt P21709)
T17 construct: purchased Eurofins (KinaseProfiler)
T17 sequence (P21709 26-976): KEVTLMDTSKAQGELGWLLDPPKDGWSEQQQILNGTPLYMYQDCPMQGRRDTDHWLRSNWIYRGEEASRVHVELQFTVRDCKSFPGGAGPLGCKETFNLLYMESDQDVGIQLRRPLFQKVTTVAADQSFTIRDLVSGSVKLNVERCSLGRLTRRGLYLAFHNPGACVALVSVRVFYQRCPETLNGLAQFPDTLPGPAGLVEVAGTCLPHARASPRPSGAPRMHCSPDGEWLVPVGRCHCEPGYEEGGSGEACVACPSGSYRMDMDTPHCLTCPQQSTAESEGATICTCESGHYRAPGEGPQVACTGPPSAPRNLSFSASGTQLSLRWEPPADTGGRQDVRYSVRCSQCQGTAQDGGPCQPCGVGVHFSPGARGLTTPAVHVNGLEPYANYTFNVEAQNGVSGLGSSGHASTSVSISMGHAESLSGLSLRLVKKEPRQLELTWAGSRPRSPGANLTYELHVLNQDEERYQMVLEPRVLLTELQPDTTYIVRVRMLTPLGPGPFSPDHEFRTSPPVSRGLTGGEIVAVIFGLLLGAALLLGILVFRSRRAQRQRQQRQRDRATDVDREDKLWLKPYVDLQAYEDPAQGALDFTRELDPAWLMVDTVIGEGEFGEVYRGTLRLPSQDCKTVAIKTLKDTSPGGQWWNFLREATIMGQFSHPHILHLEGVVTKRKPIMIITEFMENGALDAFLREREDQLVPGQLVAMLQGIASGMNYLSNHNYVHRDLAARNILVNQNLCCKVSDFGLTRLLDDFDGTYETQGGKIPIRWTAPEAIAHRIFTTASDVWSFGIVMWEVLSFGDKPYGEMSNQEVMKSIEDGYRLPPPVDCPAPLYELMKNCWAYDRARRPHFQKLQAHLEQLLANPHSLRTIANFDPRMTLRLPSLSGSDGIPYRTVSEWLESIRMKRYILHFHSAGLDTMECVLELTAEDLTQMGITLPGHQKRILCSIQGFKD
Description: as §1

PI3 Kinase (p120g)(h) = target: T18, PI3 Kinase (p120g)(h) (Homo sapiens, UniProt P48736)
T18 construct: purchased Eurofins (KinaseProfiler)
Description: as §1

TSSK4(h) = target: T19, TSSK4(h) (Homo sapiens, UniProt Q6SA08)
T19 construct: purchased Eurofins (KinaseProfiler)
Description: as §1

CK2(h) = target: T20, CK2(h) (Homo sapiens, UniProt P68400)
T20 construct: purchased Eurofins (KinaseProfiler)
Description: as §1

Pyk2(h) = target: T21, Pyk2(h) (Homo sapiens, UniProt Q14289)
T21 construct: purchased Eurofins (KinaseProfiler)
Description: as §1

HPK1(h) = target: T22, HPK1(h) (Homo sapiens, UniProt Q92918)
T22 construct: purchased Eurofins (KinaseProfiler)
Description: as §1

PKBγ(h) = target: T23, PKBγ(h) (Homo sapiens, UniProt Q9Y243)
T23 construct: purchased Eurofins (KinaseProfiler)
Description: as §1

IRR(h) = target: T24, IRR(h) (Homo sapiens, UniProt P14616)
T24 construct: purchased Eurofins (KinaseProfiler)
T24 sequence (P14616 27-1297): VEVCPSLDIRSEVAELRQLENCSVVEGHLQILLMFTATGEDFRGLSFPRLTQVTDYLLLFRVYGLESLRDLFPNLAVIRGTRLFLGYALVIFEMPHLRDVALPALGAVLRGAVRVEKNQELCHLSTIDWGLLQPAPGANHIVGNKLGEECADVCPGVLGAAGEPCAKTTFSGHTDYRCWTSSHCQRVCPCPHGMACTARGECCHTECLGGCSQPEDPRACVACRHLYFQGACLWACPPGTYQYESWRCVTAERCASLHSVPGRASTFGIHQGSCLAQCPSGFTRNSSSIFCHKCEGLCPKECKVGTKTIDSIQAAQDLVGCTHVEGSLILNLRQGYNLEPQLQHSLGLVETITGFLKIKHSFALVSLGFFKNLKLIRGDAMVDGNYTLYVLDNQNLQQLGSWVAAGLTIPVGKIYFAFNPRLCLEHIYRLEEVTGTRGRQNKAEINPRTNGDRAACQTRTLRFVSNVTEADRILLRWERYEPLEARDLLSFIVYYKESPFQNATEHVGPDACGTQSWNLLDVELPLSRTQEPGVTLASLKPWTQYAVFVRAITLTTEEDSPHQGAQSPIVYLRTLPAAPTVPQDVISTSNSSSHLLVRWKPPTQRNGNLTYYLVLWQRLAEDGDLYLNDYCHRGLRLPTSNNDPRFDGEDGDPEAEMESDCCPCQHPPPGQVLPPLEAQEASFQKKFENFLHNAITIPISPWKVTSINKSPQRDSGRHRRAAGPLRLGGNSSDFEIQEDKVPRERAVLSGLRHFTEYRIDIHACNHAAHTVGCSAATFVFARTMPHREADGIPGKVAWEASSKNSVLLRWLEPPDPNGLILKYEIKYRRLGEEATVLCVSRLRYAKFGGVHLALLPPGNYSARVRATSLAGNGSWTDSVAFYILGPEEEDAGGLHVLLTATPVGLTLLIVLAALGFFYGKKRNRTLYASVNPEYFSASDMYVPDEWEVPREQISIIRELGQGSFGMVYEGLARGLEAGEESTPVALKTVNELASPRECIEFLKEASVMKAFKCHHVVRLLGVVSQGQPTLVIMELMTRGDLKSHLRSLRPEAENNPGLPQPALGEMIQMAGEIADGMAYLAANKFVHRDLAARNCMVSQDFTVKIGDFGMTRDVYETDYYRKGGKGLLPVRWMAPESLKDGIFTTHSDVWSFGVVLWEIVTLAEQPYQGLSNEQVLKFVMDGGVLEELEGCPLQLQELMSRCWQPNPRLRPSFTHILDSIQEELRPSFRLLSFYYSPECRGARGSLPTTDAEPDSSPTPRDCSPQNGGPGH
Description: as §1

Abl(T315I)(h) = target: T25, Abl(T315I)(h) (Homo sapiens, UniProt P00519, T315I)
T25 construct: purchased Eurofins (KinaseProfiler)
Description: as §1

CRIK(h) = target: T26, CRIK(h) (Homo sapiens, UniProt O14578)
T26 construct: purchased Eurofins (KinaseProfiler)
Description: as §1

EphA3(h) = target: T27, EphA3(h) (Homo sapiens, UniProt P29320)
T27 construct: purchased Eurofins (KinaseProfiler)
Description: as §1

EGFR(T790M)(h) = target: T28, EGFR(T790M)(h) (Homo sapiens, UniProt P00533, T790M)
T28 construct: purchased Eurofins (KinaseProfiler)
Description: as §1

Haspin(h) = target: T29, Haspin(h) (Homo sapiens, UniProt Q8TF76)
T29 construct: purchased Eurofins (KinaseProfiler)
Description: as §1

VRK1(h) = target: T30, VRK1(h) (Homo sapiens, UniProt Q99986)
T30 construct: purchased Eurofins (KinaseProfiler)
T30 sequence (Q99986 whole entry): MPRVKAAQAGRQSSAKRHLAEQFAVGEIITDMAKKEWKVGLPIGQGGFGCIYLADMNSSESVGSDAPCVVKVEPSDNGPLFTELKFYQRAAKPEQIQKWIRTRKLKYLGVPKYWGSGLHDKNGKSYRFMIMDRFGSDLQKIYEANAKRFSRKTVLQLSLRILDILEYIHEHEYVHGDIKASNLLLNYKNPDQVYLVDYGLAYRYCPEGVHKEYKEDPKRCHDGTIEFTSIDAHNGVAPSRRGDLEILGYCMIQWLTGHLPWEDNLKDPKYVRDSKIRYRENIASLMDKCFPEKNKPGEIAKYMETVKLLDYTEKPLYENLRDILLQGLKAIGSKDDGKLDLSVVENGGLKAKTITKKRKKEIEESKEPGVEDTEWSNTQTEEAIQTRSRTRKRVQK
Description: as §1

MRCKβ(h) = target: T31, MRCKβ(h) (Homo sapiens, UniProt Q9Y5S2)
T31 construct: purchased Eurofins (KinaseProfiler)
Description: as §1

DAPK1(h) = target: T32, DAPK1(h) (Homo sapiens, UniProt P53355)
T32 construct: purchased Eurofins (KinaseProfiler)
Description: as §1

LOK(h) = target: T33, LOK(h) (Homo sapiens, UniProt O94804)
T33 construct: purchased Eurofins (KinaseProfiler)
Description: as §1

LKB1(h) = target: T34, LKB1(h) (Homo sapiens, UniProt Q15831)
T34 construct: purchased Eurofins (KinaseProfiler)
Description: as §1

Pim-2(h) = target: T35, Pim-2(h) (Homo sapiens, UniProt Q9P1W9)
T35 construct: purchased Eurofins (KinaseProfiler)
Description: as §1

ROCK-II(h) = target: T36, ROCK-II(h) (Homo sapiens, UniProt O75116)
T36 construct: purchased Eurofins (KinaseProfiler)
Description: as §1

CDK16/cyclinY(h) = target: T37, CDK16/cyclinY(h) (Homo sapiens, UniProt Q00536)
T37 construct: purchased Eurofins (KinaseProfiler)
Description: as §1

SGK2(h) = target: T38, SGK2(h) (Homo sapiens, UniProt Q9HBY8)
T38 construct: purchased Eurofins (KinaseProfiler)
T38 sequence (Q9HBY8 whole entry): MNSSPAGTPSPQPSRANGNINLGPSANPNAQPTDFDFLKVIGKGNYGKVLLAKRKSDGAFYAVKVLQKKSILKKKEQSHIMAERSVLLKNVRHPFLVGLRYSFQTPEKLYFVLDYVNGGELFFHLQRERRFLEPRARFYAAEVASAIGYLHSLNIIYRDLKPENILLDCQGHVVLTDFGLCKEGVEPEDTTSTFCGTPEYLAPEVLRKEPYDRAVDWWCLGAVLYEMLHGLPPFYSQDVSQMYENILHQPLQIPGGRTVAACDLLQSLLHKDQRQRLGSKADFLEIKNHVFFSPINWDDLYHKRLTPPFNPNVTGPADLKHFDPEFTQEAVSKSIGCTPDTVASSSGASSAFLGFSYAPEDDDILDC
Description: as §1

Cc1cc(/C=C/C#N)cc(C)c1Nc1ccnc(Nc2ccc(C#N)cc2)n1 [rilpivirine, (E)-4-((4-((4-(2-cyanoethenyl)-2,6-dimethylphenyl)amino)pyrimidin-2-yl)amino)benzonitrile]
remaining activity at 1 µM (CK2α2(h)): 104%
remaining activity at 1 µM (CK1α(h)): 103%
remaining activity at 1 µM (PDGFRα(h)): 96%
remaining activity at 1 µM (Met(D1246N)(h)): 102%
remaining activity at 1 µM (IR(h), activated): 85%
remaining activity at 1 µM (ALK6(h)): 83%
remaining activity at 1 µM (TrkA(h)): 101%
remaining activity at 1 µM (Abl(Y253F)(h)): 58%
remaining activity at 1 µM (Aurora-B(h)): 85%
remaining activity at 1 µM (PKCβI(h)): 89%
remaining activity at 1 µM (IRE1(h)): 100%
remaining activity at 1 µM (PEK(h)): 82%
remaining activity at 1 µM (ALK2(h)): 91%
remaining activity at 1 µM (Met(Y1248D)(h)): 100%
remaining activity at 1 µM (MINK(h)): 80%
remaining activity at 1 µM (DNA-PK(h)): 95%
remaining activity at 1 µM (EphA1(h)): 56%
remaining activity at 1 µM (PI3 Kinase (p120g)(h)): 87%
remaining activity at 1 µM (TSSK4(h)): 127%
remaining activity at 1 µM (CK2(h)): 90%
remaining activity at 1 µM (Pyk2(h)): 81%
remaining activity at 1 µM (HPK1(h)): 62%
remaining activity at 1 µM (PKBγ(h)): 86%
remaining activity at 1 µM (IRR(h)): 95%
remaining activity at 1 µM (Abl(T315I)(h)): 93%
remaining activity at 1 µM (CRIK(h)): 107%
remaining activity at 1 µM (EphA3(h)): 86%
remaining activity at 1 µM (EGFR(T790M)(h)): 79%
remaining activity at 1 µM (Haspin(h)): 61%
remaining activity at 1 µM (VRK1(h)): 80%
remaining activity at 1 µM (MRCKβ(h)): 87%
remaining activity at 1 µM (DAPK1(h)): 83%
remaining activity at 1 µM (LOK(h)): 101%
remaining activity at 1 µM (LKB1(h)): 87%
remaining activity at 1 µM (Pim-2(h)): 56%
remaining activity at 1 µM (ROCK-II(h)): 98%
remaining activity at 1 µM (CDK16/cyclinY(h)): 96%
remaining activity at 1 µM (SGK2(h)): 97%
